Legend:
MAT2A homodimer = biological target: T1, MAT2A homodimer (Homo sapiens, UniProt P31153); experiment: Biochemical assay: inhibition of MAT2A (phosphate release, PiColorLock Gold); conditions: MAT2A IC50 score; read-out: Enzyme Inhibition (Example 275)
T1 construct: inferred from Ni sepharose purification and imidazole elution; made in house; host or cells: Sf9 insect cells, recombinant baculovirus (Bac to Bac, pFASTBAC1)
Procedure, shortened: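 Phosphate formed alongside SAM was read with PiColorLock Gold and quantified against a potassium phosphate standard curve. Reactions ran 60 min at 25 °C after adding a substrate mix of 500 μM ATP and 400 μM L-methionine (mix concentrations). Compound had first been preincubated 60 min with recombinant Sf9-derived MAT2A homodimer ([…]) in pH 8.0 Tris buffer containing MgCl2, KCl, EDTA and BSA.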

[1] = tested on: SAM in HCT116 human colon carcinoma cell line engineered to delete the MTAP gene (MTAP −/−); experiment: Cellular assay of target engagement (SAM) by LC-MS/MS; type: cell-based; conditions: Homo sapiens, HCT-116, 72 h, IC50 score, read-out: Cell 72 h SAM Inhibition (MTAP −/−; Example 276)
Method: Measurement of MAT2A activity in cells was made by direct quantitation of the abundance of the product of its enzymatic activity, SAM. Cancer cells were treated with candidate MAT2A inhibitors for a suitable incubation period, and the cells were then lysed using a reagent which quenched any further enzyme activity. Soluble metabolites including SAM were collected and SAM itself was directly measured from the lysate using quantitative LC-MS/MS.
A typical assay was performed using an HCT116 human colon carcinoma cell line which was genetically engineered to delete the MTAP gene (commercially available from Horizon Discovery). This cell line was utilized because it was determined that loss of the MTAP gene predicts sensitivity to MAT2A inhibitors. Cells were plated in 96-well dishes at appropriate cell density. Following 24 hours, cells were then treated with the candidate MAT2A inhibitor. Prior to addition to cells, the compound was first serially diluted in 100% DMSO, typically as a 3-fold serial dilution starting at 500× top dose with 10 dose points including DMSO only control. Compound was then transferred to a working stock plate in cell culture media by adding 5 μl of compound in DMSO to 495 μl of cell culture media. This working stock was then added to cells via a further 5-fold dilution, by adding 25 μl of working stock to 100 μl of cells in culture media. Following compound addition, cells were incubated at 37° C./5% CO2 for 72 hrs.
To quantitate SAM levels following compound treatment, cells were gently washed once in Ammonium Carbonate buffer (75 mM at pH 7.4), placed on dry ice, and lysed with metabolite extraction buffer (80% cold methanol and 20% water (v/v) with acetic acid at 1 M final concentration with 200 ng/mL deuterated d3-SAM as internal control). Following centrifugation at 4° C. at 3,200 rpm for 30 minutes, the supernatant was collected and stored at −80° C. until analysis by Liquid Chromatography with tandem Mass Spectrometry (LC-MS/MS). LC-MS/MS analysis was performed using an API6500 Mass Spectrometer (Sciex, Framingham, Mass., USA) operating in positive ion spray mode and equipped with a Waters UPLC Acquity (Waters, Milford, Mass., USA) BEH Amide column. Multiple Reaction Monitoring data was acquired for SAM and the d3-SAM standard, using a mass transition pair at m/z 399.2→250.1 and 402.2→250.1, respectively. In a typical LC-MS/MS analysis, the initial flow rate was 0.5 ml/min of 25% mobile phase A (acetonitrile and water at 5:95 (v/v) with 1% formic acid and 10 mM ammonium acetate) and 75% mobile phase B (acetonitrile and water at 95:5 (v/v) with 1% formic acid and 10 mM ammonium acetate), 0.2-0.5 minutes with 75%-35% mobile phase B, 25%-65% mobile phase A, at 0.5 min 65% mobile phase A and 35% mobile phase B, 1.0-1.1 minutes with 35%-75% mobile phase B, 65%-25% mobile phase A, at 1.1 min 25% mobile phase A and 75% mobile phase B with a total run time of 1.5 minutes.

HCT116 MTAP−/− = experiment: Inhibition of cellular proliferation (Cell Titer Glo), HCT116 MTAP−/−; type: cell-based, human; conditions: Homo sapiens, HCT-116, 96 h, 4 days, IC50 score, read-out: 4 Day Relative Growth Inhibition (MTAP −/−; Example 277)
Method: (§1) Test compound impact on cancer cell growth was assessed by treating cancer cells with compound for 4 days and then measuring proliferation using an ATP-based cell proliferation readout (Cell Titer Glo, Promega Corporation).
(§2) In a typical assay an isogenic pair of HCT116 human colon carcinoma cell lines which vary only in MTAP deletion status (HCT116 MTAP+/+ and HCT116 MTAP−/−) were plated in 96-well dishes at appropriate cell density. Following 24 hours, cells were then treated with the candidate MAT2A inhibitor. Prior to addition to cells, the compound was first serially diluted in 100% DMSO, typically as a 3-fold serial dilution starting at 500× top dose with 10 dose points including DMSO only control. Compound was then transferred to a working stock plate in cell culture media by adding 5 μl of compound in DMSO to 495 μl of cell culture media. This working stock was then added to cells via a further 5-fold dilution, by adding 25 μl of working stock to 100 μl of cells in culture media. Following compound addition, cells were incubated at 37° C./5% C02 for 4 days.
(§3) To measure inhibition of cellular proliferation, cells were allowed to equilibrate to room temperature for 30 minutes, and were then treated with 125 μl of Cell Titer Glo reagent. The plate was then covered with aluminum foil and shaken for 15 minutes to ensure complete mixing and full cell lysis. Luminescent signal was then measured using a plate-based luminometer Veritas version 1.9.2 using ATP standard curve to confirm assay reproducibility from run to run. This luminescence measure was converted to a proliferation index by subtracting from each data point the ATP luminescence signal measured from a bank (no cells) well and dividing by the ATP luminescence signal measured in 0.2% DMSO control well adjusted for signal in blank well. Compound activity was then represented as a percentage change in proliferation relative to a within-plate DMSO control against log10 of compound concentration in molar (M) units.

HCT116 MTAP+/+ = experiment: Inhibition of cellular proliferation (Cell Titer Glo), HCT116 MTAP+/+; type: cell-based, human; conditions: Homo sapiens, HCT-116, 96 h, 4 days, IC50 score, read-out: 4 Day Relative Growth Inhibition (MTAP +/+; Example 277)
Method: as §1, §2, §3

T1 sequence (P31153 whole entry): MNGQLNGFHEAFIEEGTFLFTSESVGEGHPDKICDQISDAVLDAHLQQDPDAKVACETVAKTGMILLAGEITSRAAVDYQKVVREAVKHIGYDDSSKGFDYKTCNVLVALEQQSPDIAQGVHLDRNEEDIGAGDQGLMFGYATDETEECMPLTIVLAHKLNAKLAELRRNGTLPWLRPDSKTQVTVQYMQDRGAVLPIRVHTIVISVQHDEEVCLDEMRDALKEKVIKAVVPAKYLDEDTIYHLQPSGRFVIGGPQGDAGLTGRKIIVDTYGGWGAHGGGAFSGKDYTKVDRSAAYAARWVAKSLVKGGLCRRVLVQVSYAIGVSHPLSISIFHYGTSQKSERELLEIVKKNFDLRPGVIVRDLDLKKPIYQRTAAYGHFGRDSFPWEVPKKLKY

Structure (SMILES)	IC50 (MAT2A homodimer)	IC50 [1]	IC50 (HCT116 MTAP−/−)	IC50 (HCT116 MTAP+/+)
CC(C)n1cc2cc(-n3cc4cnc(NCC(F)(F)F)nc4c(-c4ccc(OC(F)F)cc4)c3=O)ccc2n1 [Example 153, 8-(4-(difluoromethoxy)phenyl)-6-(2-isopropyl-2H-indazol-5-yl)-2-((2,2,2-trifluoroethyl)amino)pyrido[4,3-d]pyrimidin-7(6H)-one]	< 100 nM	< 100 nM	< 100 nM	> 10000 nM
CCOc1ccc2cn(-c3ccc(=O)n(CCS(C)(=O)=O)c3)c(=O)c(-c3ccc(OC(F)F)cc3)c2n1 [Example 249, 8-(4-(difluoromethoxy)phenyl)-2-ethoxy-6-(1-(2-(methylsulfonyl)ethyl)-6-oxo-1,6-dihydropyridin-3-yl)-1,6-naphthyridin-7(6H)-one]	< 100 nM	< 100 nM	100 to 10000 nM	100 to 10000 nM
Cn1cc2cc(-n3cc4cnc(NCC(F)(F)F)nc4c(-c4ccc(C(F)(F)F)cc4)c3=O)ccc2n1 [Example 161, 6-(2-methyl-2H-indazol-5-yl)-2-((2,2,2-trifluoroethyl)amino)-8-(4-(trifluoromethyl)phenyl)pyrido[4,3-d]pyrimidin-7(6H)-one]	< 100 nM	< 100 nM	< 100 nM	> 10000 nM
Cn1cc2cc(-n3cc4ccc(OCC(F)(F)F)nc4c(-c4ccc(Cl)cc4)c3=O)ccc2n1 [Example 254, 8-(4-chlorophenyl)-6-(2-methyl-2H-indazol-5-yl)-2-(2,2,2-trifluoroethoxy)-1,6-naphthyridin-7(6H)-one]	< 100 nM	< 100 nM	< 100 nM	> 10000 nM
O=c1c(-c2ccc(OC(F)F)cc2)c2nc(NC3CCC3)ncc2cn1-c1ccc2ncccc2c1 [Example 183, 2-(cyclobutylamino)-8-(4-(difluoromethoxy)phenyl)-6-(quinolin-6-yl)pyrido[4,3-d]pyrimidin-7(6)-one]	< 100 nM	100 to 1000 nM	100 to 10000 nM	> 10000 nM
CCOc1ccc2cn(-c3ccc4ncccc4c3)c(=O)c(-c3ccc(C4CC4)nc3)c2n1 [Example 231, 8-(6-cyclopropylpyridin-3-yl)-2-ethoxy-6-(quinolin-6-yl)-1,6-naphthyridin-7(6H)-one]	< 100 nM	< 100 nM	100 to 10000 nM	> 10000 nM
Cn1cnc2ccc(-n3cc4ccc(OCC(F)(F)F)nc4c(-c4ccc(OC(F)F)cc4)c3=O)cc21 [Example 257, 8-(4-(difluoromethoxy)phenyl)-6-(1-methyl-1H-benzo[d]imidazol-6-yl)-2-(2,2,2-trifluoroethoxy)-1,6-naphthyridin-7(6H)-one]	< 100 nM	< 100 nM	< 100 nM	100 to 10000 nM
COc1ccc(-c2c(=O)n(-c3ccc4nccn4c3)cc3cnc(NCC(F)(F)F)nc23)cc1 [Example 143, 6-(imidazo[1,2-a]pyridin-6-yl)-8-(4-methoxyphenyl)-2-((2,2,2-trifluoroethyl)amino)pyrido[4,3-d]pyrimidin-7(6H)-one]	< 100 nM	100 to 1000 nM	100 to 10000 nM	> 10000 nM

The remaining lines, values ahead:

IC50 (MAT2A homodimer)	IC50 [1]	IC50 (HCT116 MTAP−/−)	IC50 (HCT116 MTAP+/+)	Structure (SMILES)
< 100 nM	< 100 nM	< 100 nM	> 10000 nM	CCOc1nc2c(-c3ccc(Cl)cc3)c(=O)n(-c3ccc4nn(C)cc4c3)cc2cc1C [Example 134-A]
< 100 nM	< 100 nM	< 100 nM	100 to 10000 nM	Cn1cc2cc(-n3cc4ccc(OCC(F)(F)F)nc4c(-c4ccc(OC(F)F)nc4)c3=O)ccc2n1 [Example 110-A]
< 100 nM	< 100 nM	< 100 nM	> 10000 nM	Cn1cc2cc(-n3cc4cnc(NC5CC5)nc4c(-c4ccc(OC(F)F)cc4)c3=O)ccc2n1 [Example 172, 2-(cyclopropylamino)-8-(4-(difluoromethoxy)phenyl)-6-(2-methyl-2H-indazol-5-yl)pyrido[4,3-d]pyrimidin-7(6H)-one]
< 100 nM	< 100 nM	100 to 10000 nM	100 to 10000 nM	Cn1cc2cc(-n3cc4ccc(OCC(F)(F)F)nc4c(-c4ccc(OC(F)F)cc4)c3=O)ccc2n1 [Example 256, 8-(4-(difluoromethoxy)phenyl)-6-(2-methyl-2H-indazol-5-yl)-2-(2,2,2-trifluoroethoxy)-1,6-naphthyridin-7(6H)-one]
< 100 nM	< 100 nM	100 to 10000 nM	100 to 10000 nM	CCOc1ccc2cn(-c3ccc(OC)cc3)c(=O)c(-c3ccc(OC(F)F)nc3)c2n1 [Example 129-A]
< 100 nM	< 100 nM	100 to 10000 nM	100 to 10000 nM	Cn1cc2cc(-n3cc4ccc(OCC(F)(F)F)nc4c(-c4ccc(C(F)(F)F)nc4)c3=O)ccc2n1 [Example 124-A]
< 100 nM	< 100 nM	100 to 10000 nM	100 to 10000 nM	CCOc1ccc2cn(-c3ccc4nnn(C)c4c3)c(=O)c(-c3ccc(OC(F)F)cc3)c2n1 [Example 252, 8-(4-(difluoromethoxy)phenyl)-2-ethoxy-6-(1-methyl-1H-benzo[d][1,2,3]triazol-6-yl)-1,6-naphthyridin-7(6H)-one]
< 100 nM	< 100 nM	100 to 10000 nM	100 to 10000 nM	CCOc1cnc2cn(-c3ccc(OC)cc3)c(=O)c(-c3ccc(OC(F)F)cc3)c2n1 [Example 150-A]
< 100 nM	< 100 nM	< 100 nM	> 10000 nM	CCNc1ncc2cn(-c3ccc4nn(C)cc4c3)c(=O)c(-c3ccc(OC(F)F)cc3)c2n1 [Example 171, 8-(4-(difluoromethoxy)phenyl)-2-(ethylamino)-6-(2-methyl-2H-indazol-5-yl)pyrido[4,3-d]pyrimidin-7(6H)-one]
< 100 nM	< 100 nM	100 to 10000 nM	100 to 10000 nM	CCOc1cnc2cn(-c3ccc4nn(C)cc4c3)c(=O)c(-c3ccc(OC(F)F)nc3)c2n1 [Example 149-A]
< 100 nM	< 100 nM	< 100 nM	100 to 10000 nM	Cn1cc2cc(-n3cc4cnc(NCC(F)F)nc4c(-c4ccc(Cl)cc4)c3=O)ccc2n1 [Example 102-A]

Source: patent US11524960B2, “Heterobicyclic inhibitors of MAT2A and methods of use for treating cancer” (AGIOS PHARMACEUTICALS, INC., priority 2018, dated 2022)
